Reference: ChEMBL document CHEMBL3763116, “Synthesis and evaluation of colletoic acid core derivatives” (Eur J Med Chem, 2016)

Key:
[1] = biological target: 11-beta-hydroxysteroid dehydrogenase 1 (Homo sapiens, UniProt P28845); test: Inhibition of 11beta-HSD1 (unknown origin) using cortisol as substrate assessed as NADPH formation by fluorescent plate reader analysis
[2] = biological target: T1, 11-beta-hydroxysteroid dehydrogenase type 2 (Homo sapiens, UniProt P80365); test: Inhibition of full length human 11beta-HSD2 expressed in HEK293 cells using […] as substrate incubated for 2 hrs by HTRF assay in presence of NAD+; format: cell-based
T1 sequence (P80365 whole entry): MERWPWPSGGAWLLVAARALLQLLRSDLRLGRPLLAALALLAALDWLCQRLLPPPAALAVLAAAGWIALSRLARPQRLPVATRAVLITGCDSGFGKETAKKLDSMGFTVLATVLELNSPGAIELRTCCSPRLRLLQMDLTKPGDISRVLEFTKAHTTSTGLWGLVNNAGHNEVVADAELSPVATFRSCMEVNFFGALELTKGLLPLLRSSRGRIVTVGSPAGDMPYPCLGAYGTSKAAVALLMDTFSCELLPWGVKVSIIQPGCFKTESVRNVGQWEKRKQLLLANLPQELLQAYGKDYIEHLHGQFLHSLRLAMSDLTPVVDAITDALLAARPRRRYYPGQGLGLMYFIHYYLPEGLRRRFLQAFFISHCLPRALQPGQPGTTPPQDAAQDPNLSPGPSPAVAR

BJ = test: Cytotoxicity against human BJ cells after 72 hrs by Cell TitreGlo assay; format: cell-based

11-beta-hydroxysteroid dehydrogenase 1, sequence (P28845 whole entry): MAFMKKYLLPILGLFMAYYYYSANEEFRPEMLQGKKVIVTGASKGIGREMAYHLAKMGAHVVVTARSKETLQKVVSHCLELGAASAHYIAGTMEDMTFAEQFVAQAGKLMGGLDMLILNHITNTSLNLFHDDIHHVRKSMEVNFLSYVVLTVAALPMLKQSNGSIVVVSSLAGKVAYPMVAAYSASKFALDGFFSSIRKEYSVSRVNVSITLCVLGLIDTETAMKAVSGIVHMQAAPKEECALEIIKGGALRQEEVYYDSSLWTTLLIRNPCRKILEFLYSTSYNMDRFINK

CC(C)=CCC/C(C)=C/CNC(=O)[C@H]1CC=C(C(C)C)[C@]12C=CC(=O)CC2
IC50 [1]: 18 µM
IC50 [2]: > 1000 µM
EC50 (BJ): > 90 µM

C=C1CC[C@H](C(=O)OCC)[C@@]12C=CC(=O)CC2
IC50 [1]: > 1000 µM
EC50 (BJ): > 90 µM

CC1=CC[C@H](CO)[C@@]12C=CC(=O)CC2
IC50 [1]: > 1000 µM
EC50 (BJ): > 90 µM

CCOC(=O)[C@H]1CC[C@@H](C(C)C)[C@]12C=CC(=O)CC2
IC50 [1]: > 1000 µM
EC50 (BJ): > 90 µM

CC(C)C1=CC[C@H]2C(=O)O[C@@H]3CC(=O)CC[C@@]132
IC50 [1]: > 1000 µM
EC50 (BJ): > 90 µM

CC(C)[C@@H]1CC[C@@H]2CO[C@@H]3[C@H](O)[C@](C)(O)CC[C@]231
IC50 [1]: > 1000 µM
EC50 (BJ): > 90 µM

CC(C)[C@@H]1CC[C@H](CO)[C@]12CC[C@@](C)(O)C[C@H]2O
IC50 [1]: > 1000 µM
EC50 (BJ): > 90 µM

CCn1c2ccccc2c2nnc(S(=O)(=O)C[C@H]3CC=C(C(C)C)[C@]34C=CC(=O)CC4)nc21
IC50 [1]: 74 µM
IC50 [2]: > 1000 µM
EC50 (BJ): > 90 µM

CC(C)C1=CC[C@H](CS(=O)(=O)c2nc3ccccc3o2)[C@@]12C=CC(=O)CC2
IC50 [1]: > 1000 µM
IC50 [2]: > 1000 µM
EC50 (BJ): > 90 µM

C=C1CC[C@]2(C[C@@H]1OC(C)=O)[C@@H](C(=O)OCC)CC[C@H]2C(C)C
IC50 [1]: > 1000 µM
EC50 (BJ): > 90 µM

CC(C)C1=CC[C@H](CN2C(=O)c3ccccc3S2(=O)=O)[C@@]12C=CC(=O)CC2
IC50 [1]: 341 µM
IC50 [2]: > 1000 µM
EC50 (BJ): > 90 µM

O=C1C=C[C@@]2(CC1)c1ccccc1C[C@@H]2C(=O)O
IC50 [1]: > 1000 µM
EC50 (BJ): > 90 µM

CC(C)C1=CC[C@H](CS(=O)(=O)c2nnnn2-c2ccccc2)[C@@]12C=CC(=O)CC2
IC50 [1]: 245 µM
IC50 [2]: > 1000 µM
EC50 (BJ): > 90 µM

CC(C)(C)[Si](C)(C)OCCC1=CC[C@H](CO)[C@@]12C=CC(=O)CC2
IC50 [1]: > 1000 µM
EC50 (BJ): > 90 µM

O=C1C=C[C@@]2(CC1)C(c1ccccc1)=CC[C@@H]2CO
IC50 [1]: > 1000 µM
EC50 (BJ): > 90 µM

CCOC[C@H]1CC=C(C(C)C)[C@]12C=CC(=O)CC2
IC50 [1]: > 1000 µM
EC50 (BJ): > 90 µM

C[C@@]1(O)CC[C@]23c4ccccc4C[C@@H]2CO[C@@H]3[C@@H]1O
IC50 [1]: > 1000 µM
EC50 (BJ): > 90 µM

CC(C)C1=CC[C@H](CO)[C@]12CC[C@](C)(O)[C@H]1O[C@H]12
IC50 [1]: > 1000 µM
EC50 (BJ): > 90 µM

CC(C)C1=CC[C@H](CSc2nc3ccccc3s2)[C@@]12C=CC(=O)CC2
IC50 [1]: > 1000 µM
IC50 [2]: > 1000 µM
EC50 (BJ): > 90 µM

CC(C)C1=CC[C@H](CSc2nnnn2-c2ccccc2)[C@@]12C=CC(=O)CC2
IC50 [1]: > 1000 µM
IC50 [2]: > 1000 µM
EC50 (BJ): > 90 µM

CC(C)C1=CC[C@H](CO)C12CCC(=O)CC2
IC50 [1]: > 1000 µM
EC50 (BJ): > 90 µM

CC(C)[C@@H]1CC[C@H](CO)[C@]12CC[C@@](C)(O)[C@H]1O[C@H]12
IC50 [1]: > 1000 µM
EC50 (BJ): > 90 µM

CC(C)C1=CC[C@H](CSc2ccc3ccccc3c2)[C@@]12C=CC(=O)CC2
IC50 [1]: > 1000 µM
IC50 [2]: > 1000 µM
EC50 (BJ): > 90 µM

COC1(OC)C=C[C@@]2(CC1)C(C(C)C)=CC[C@@H]2CO
IC50 [1]: > 1000 µM
EC50 (BJ): > 90 µM

CC(C)C1=CC[C@H](CS(=O)(=O)c2ccc3ccccc3c2)[C@@]12C=CC(=O)CC2
IC50 [1]: 8 µM
IC50 [2]: > 1000 µM
EC50 (BJ): > 90 µM

CC(C)C1=CC[C@H](Cn2cc(CNC(=O)OC(C)(C)C)nn2)[C@@]12C=CC(=O)CC2
IC50 [1]: > 1000 µM
IC50 [2]: > 1000 µM
EC50 (BJ): > 90 µM

CC(C)C1=CC[C@H](C(=O)Nc2ncc(-c3ccc(Cl)cc3)s2)[C@@]12C=CC(=O)CC2
IC50 [1]: 122 µM
IC50 [2]: > 1000 µM
EC50 (BJ): > 90 µM

O=C1C=C[C@@]2(CC1)C(COCc1ccccc1)=CC[C@@H]2CO
IC50 [1]: > 1000 µM
EC50 (BJ): > 90 µM

CC(C)C1=CC[C@H](Cn2cc(CN(c3ncccn3)S(=O)(=O)c3ccc(N)cc3)nn2)[C@@]12C=CC(=O)CC2
IC50 [1]: > 1000 µM
IC50 [2]: > 1000 µM
EC50 (BJ): > 90 µM

CC(C)C1=CC[C@H](CO)[C@]12CC[C@@](C)(O)[C@@H](O)C2
IC50 [1]: > 1000 µM
EC50 (BJ): > 90 µM

CC(C)C1=CC[C@H](CS(=O)(=O)c2nc3ccccc3s2)[C@@]12C=CC(=O)CC2
IC50 [1]: > 1000 µM
IC50 [2]: > 1000 µM
EC50 (BJ): > 90 µM

CC(C)C1=CC[C@H](C(=O)O)[C@@]12C=CC(=O)CC2
IC50 [1]: > 1000 µM
EC50 (BJ): > 90 µM

CCn1c2ccccc2c2nnc(SC[C@H]3CC=C(C(C)C)[C@]34C=CC(=O)CC4)nc21
IC50 [1]: 33 µM
IC50 [2]: > 1000 µM
EC50 (BJ): > 90 µM

CC(C)[C@@H]1CC[C@H](CO)[C@]12CC[C@@](C)(O)[C@@H](O)C2
IC50 [1]: > 1000 µM
EC50 (BJ): > 90 µM

C=C1C(=O)C[C@]2(C[C@@H]1OC(C)=O)[C@@H](C(=O)OCC)CC[C@H]2C(C)C
IC50 [1]: > 1000 µM
EC50 (BJ): > 90 µM

COc1ccc(S(=O)(=O)NCc2cn(C[C@H]3CC=C(C(C)C)[C@]34C=CC(=O)CC4)nn2)cc1
IC50 [1]: > 1000 µM
IC50 [2]: > 1000 µM
EC50 (BJ): > 90 µM

CC(C)[C@@H]1CC[C@H](CO)[C@]12CC[C@](C)(O)[C@H]1O[C@H]12
IC50 [1]: > 1000 µM
EC50 (BJ): > 90 µM

CC1=CC[C@@]2(c3ccccc3C[C@@H]2C(=O)O)[C@H](O)[C@@H]1O
IC50 [1]: > 1000 µM
EC50 (BJ): > 90 µM

CC(C)C1=CC[C@H](CO)[C@@]12C=CC(=O)CC2
IC50 [1]: > 1000 µM
EC50 (BJ): > 90 µM

CC(C)C1=CC(=O)[C@H](CO[Si](C)(C)C(C)(C)C)[C@@]12C=C[C@](C)(O)CC2
IC50 [1]: > 1000 µM
EC50 (BJ): > 90 µM

CCCCCCSc1nnc(SC[C@H]2CC=C(C(C)C)[C@]23C=CC(=O)CC3)s1
IC50 [1]: > 1000 µM
IC50 [2]: > 1000 µM
EC50 (BJ): > 90 µM

CC1=CC[C@@]2(CC1)C(C(C)C)=CC[C@@H]2CO
IC50 [1]: > 1000 µM
EC50 (BJ): > 90 µM

CC1=CC(=O)[C@@]2(CC1)C(C(C)C)=CC[C@@H]2CO[Si](C)(C)C(C)(C)C
IC50 [1]: > 1000 µM
EC50 (BJ): > 90 µM

CC(C)[C@@H]1CC[C@@H]2CO[C@@H]3C[C@](C)(O)CC[C@]231
IC50 [1]: > 1000 µM
EC50 (BJ): > 90 µM

CC(C)C1=CC[C@H](C(=O)NC(C)C23CC4CC(CC(C4)C2)C3)[C@@]12C=CC(=O)CC2 (stereo partly specified)
IC50 [1]: 85 µM
IC50 [2]: > 1000 µM
EC50 (BJ): > 90 µM

CC(C)C1=CC[C@H](C(N)=O)[C@@]12C=CC(=O)CC2
IC50 [1]: > 1000 µM
EC50 (BJ): > 90 µM

CCOC(=O)[C@H]1CC[C@@H](C(C)C)[C@]12CCC(=O)[C@@H](OC(C)=O)C2
IC50 [1]: > 1000 µM
EC50 (BJ): > 90 µM

CC(C)C1=CC[C@H](C(=O)NCc2cc(F)cc(F)c2)[C@@]12C=CC(=O)CC2
IC50 [1]: > 1000 µM
IC50 [2]: > 1000 µM
EC50 (BJ): > 90 µM

O=C1CC[C@@]2(c3ccccc3C[C@@H]2CO)[C@@H]2O[C@H]12
IC50 [1]: > 1000 µM
EC50 (BJ): > 90 µM

CC(C)C1=CC[C@H](C(=O)NCC2CCC3CC2C3(C)C)[C@@]12C=CC(=O)CC2 (stereo partly specified)
IC50 [1]: 94 µM
IC50 [2]: > 1000 µM
EC50 (BJ): > 90 µM

CC(C)C1=CC[C@H](CO)[C@]12CCC(=O)[C@H]1O[C@H]12
IC50 [1]: > 1000 µM
EC50 (BJ): > 90 µM

O=C1C=C[C@@]2(CC1)c1ccccc1C[C@@H]2CO
IC50 [1]: > 1000 µM
EC50 (BJ): > 90 µM

CCOC(=O)[C@H]1CC=C(C(C)C)[C@]12C=CC(=O)[C@@H](OC(C)=O)C2
IC50 [1]: > 1000 µM
EC50 (BJ): > 90 µM

CCCCCCSc1nnc(S(=O)(=O)C[C@H]2CC=C(C(C)C)[C@]23C=CC(=O)CC3)s1
IC50 [1]: 121 µM
IC50 [2]: > 1000 µM
EC50 (BJ): > 90 µM

CC(C)C1=CC[C@H](CO)[C@]12CC[C@@](C)(O)C[C@H]2O
IC50 [1]: > 1000 µM
EC50 (BJ): > 90 µM

CC(C)C1=CC[C@H](C(=O)NCCc2cccs2)[C@@]12C=CC(=O)CC2
IC50 [1]: > 1000 µM
IC50 [2]: > 1000 µM
EC50 (BJ): > 90 µM

CC(C)C1=CC[C@H](CSc2nc3ccccc3o2)[C@@]12C=CC(=O)CC2
IC50 [1]: > 1000 µM
IC50 [2]: > 1000 µM
EC50 (BJ): > 90 µM

CC(C)C1=CC[C@H](CO)[C@@]12C=C[C@](C)(O)CC2
IC50 [1]: > 1000 µM
EC50 (BJ): > 90 µM

CC(C)C1=CC[C@H](CN2C(=O)c3ccccc3C2=O)[C@@]12C=CC(=O)CC2
IC50 [1]: > 1000 µM
IC50 [2]: > 1000 µM
EC50 (BJ): > 90 µM

C[C@H]1CC[C@@]2(c3ccccc3C[C@@H]2C(=O)O)[C@H](O)[C@@H]1O
IC50 [1]: > 1000 µM
EC50 (BJ): > 90 µM

C=C1C=C[C@]2(CC1)[C@@H](C(=O)OCC)CC[C@H]2C(C)C
IC50 [1]: > 1000 µM
EC50 (BJ): > 90 µM

CC(C)C1=CC[C@H](CO[Si](C)(C)C(C)(C)C)[C@]12CC[C@@]1(O[Si](C)(C)C(C)(C)C)O[C@H]1C2
IC50 [1]: > 1000 µM
EC50 (BJ): > 90 µM

CC(C)C1=CC[C@H](CO)[C@]12CC[C@](C)(O)[C@@H](O)C2
IC50 [1]: > 1000 µM
EC50 (BJ): > 90 µM

CCOC(=O)[C@H]1CC[C@@H](C(C)C)[C@]12C=CC(O)[C@@H](OC(C)=O)C2 (single isomer, unassigned)
IC50 [1]: > 1000 µM
EC50 (BJ): > 90 µM
